Like-named read-outs stand apart in the source and are kept apart here.
Legend:
CYP 2C9 and CYP 2C19 = conditions: reported by Mizayawa et al.; cited from earlier work
[1] = PTR-MS of volatile organic compounds in exhaled breath of vegan persons, volunteers and liver patients, also grouped by LiMAx value
[2] = test system: mammary, liver, lung, and other cancers; conditions: literature reports (Mizayawa et al.; Gold 1997); cited from earlier work
[3] = in vivo

| Compound | concentration in exhaled breath (m/z 137) [3] | concentration in the expiratory air (m/z 137) [3] | further results |
| --- | --- | --- | --- |
| C=C(C)[C@H]1CC=C(C)CC1 [limonene] | – | – | metabolization by enzymes (CYP 2C9 and CYP 2C19): metabolized by enzymes of the Cytochrome P450 family; concentration in exhaled breath (m/z 137) ([1]; comparison of the three groups (vegan diet, normal diet, liver disease patients), taking error bars into account, FIG. 1A): almost identical; concentration in the expiratory air (m/z 137) ([1]; patients with LiMAx value below 176 compared to LiMAx 176 to 351 or above 351, FIG. 1B): significantly increased |
| C=C(C)[C@@H]1CC=C(CO)CC1 [perillyl alcohol] | – | – | chemopreventive activity / cancer prevention [2]: prevent mammary, liver, lung, and other cancers |
| CC1=CCC2CC1C2(C)C (stereo not drawn) [α-pinene] | almost identical | significantly increased | – |
| C=C1CCC2CC1C2(C)C (stereo not drawn) [β-pinene] | almost identical | significantly increased | – |
| γ-pinene | almost identical | significantly increased | – |

From patent US11103158B2, “Pure non-invasive method for identification of organ diseases or impaired organ function by investigation of marker substances in exhaled air stimulated by inhaled marker substances” (FREIE UNIVERSITÄT BERLIN, priority 2015, dated 2021)
